Some test systems named below: HCT-116 colon; HT29 colon; SK-MEL-28 melanoma; NCI-H23 lung; ACHN renal; MDA-MB-435; SK-MEL-5 melanoma; SN12C renal.
Holding throughout (test): inhibition of tumour cell growth, NCI panel, 48 h

The results in this text go back to PubChem BioAssay (NCI).

Where “and” joins values, the source holds several entries; their conditions need not be identical. Identical values can stand only once.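 The compound was tested at five concentrations on cells cultured in 96-well plates, with a 48-hour exposure period. GI50 = concentration required for 50% inhibition of growth. TGI is the concentration that stops growth completely.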 Some results are limits rather than exact numbers.

`CN(C)c1ccc2[nH]c(O)c(C=Nc3ccc(S(N)(=O)=O)cc3)c2c1`: the GI50 in the test with HCT-116 colon is 20.3 µM; in the test on HT29 colon it was greater than 25 µM; in the test with SK-MEL-28 melanoma, greater than 25 µM; in the test on NCI-H23 lung it was greater than 25 µM; with ACHN renal it was greater than 25 µM; with MDA-MB-435, greater than 25 µM. Moreover, the GI50 in the test on SK-MEL-5 melanoma and with SN12C renal was greater than 25 µM each time. Further, the TGI with HCT-116 colon, in the test with HT29 colon, in the test on SK-MEL-28 melanoma, in the test on NCI-H23 lung, in the test on ACHN renal and in the test on MDA-MB-435 was greater than 25 µM each time. The TGI with SK-MEL-5 melanoma and with SN12C renal was greater than 25 µM in each case.
As to `Cc1cc(S(=O)(=O)/N=C(\N)n2nc(C)c(C)c2C)c(SCc2ccccc2)cc1Cl`, the GI50 is 38.5 µM with HCT-116 colon; greater than 100 µM with HT29 colon; greater than 100 µM in the test with SK-MEL-28 melanoma; 7.04 µM in the test with NCI-H23 lung; greater than 100 µM with ACHN renal; 3.23 µM in the test on MDA-MB-435. The GI50 with SK-MEL-5 melanoma is 5.65 µM; with SN12C renal, greater than 100 µM. Also, the TGI in the test on HCT-116 colon, with HT29 colon, in the test on SK-MEL-28 melanoma, with NCI-H23 lung, in the test with ACHN renal and in the test with MDA-MB-435 was greater than 100 µM throughout. Moreover, the TGI in the test on SK-MEL-5 melanoma and in the test with SN12C renal was greater than 100 µM in each case.
For the molecule `Cc1cc2c(cc1C)[n+](=O)c(C(=O)c1cccs1)c(C(F)(F)F)n2[O-]`, the GI50 in the test on HCT-116 colon was 5.2 µM; with HT29 colon, 9.97 µM; in the test with SK-MEL-28 melanoma it was 8.83 µM and 12.3 µM; in the test on NCI-H23 lung, 6.25 µM; with ACHN renal it was 7.17 µM and 2.75 µM; in the test on MDA-MB-435, 4.45 µM and 4.89 µM. Further, the GI50 was 0.724 µM and 1.3 µM with SK-MEL-5 melanoma; 1.31 µM with SN12C renal. Further, the TGI in the test with HCT-116 colon was 26.7 µM; in the test on HT29 colon, 50 µM; with SK-MEL-28 melanoma, 28.9 µM and 46.2 µM; in the test with NCI-H23 lung, 19.7 µM; in the test with ACHN renal, 14.9 µM and 17.4 µM; with MDA-MB-435, 16 µM and 21.4 µM. In addition, the TGI in the test on SK-MEL-5 melanoma is 1.78 µM and 2.8 µM; in the test with SN12C renal, 6.59 µM.
With `CCN(CC)CCCN1C(=O)c2c(c(C)c3c(oc4cc(O)ccc43)c2C)C1=O`, the GI50 in the test with HCT-116 colon was 1.62 µM; in the test on HT29 colon, 1.39 µM; with SK-MEL-28 melanoma, 1.83 µM; in the test on NCI-H23 lung, 1.85 µM; with ACHN renal it was 1.68 µM; with MDA-MB-435, 1.76 µM. Moreover, the GI50 is 1.73 µM in the test on SK-MEL-5 melanoma and 1.81 µM with SN12C renal. The TGI came out at 3.11 µM with HCT-116 colon; 2.85 µM in the test with HT29 colon; 3.4 µM in the test on SK-MEL-28 melanoma; 3.72 µM in the test on NCI-H23 lung; 3.05 µM with ACHN renal; 3.22 µM in the test with MDA-MB-435. The TGI turned out to be 3.14 µM with SK-MEL-5 melanoma and 3.41 µM in the test with SN12C renal.
Consider `O=c1[nH]cnc2c1nnn2[C@@H]1O[C@H](CO)[C@@H](O)[C@H]1O`, for which the GI50 with HCT-116 colon was 3.93 µM; in the test with HT29 colon, 4.51 µM; with SK-MEL-28 melanoma, 31.5 µM; in the test on NCI-H23 lung, 6.65 µM; in the test with ACHN renal, 2.87 µM; in the test with MDA-MB-435, 6.26 µM. The GI50 is 13.1 µM with SK-MEL-5 melanoma and 6.4 µM with SN12C renal. For the same molecule, the TGI in the test with HCT-116 colon, in the test with HT29 colon, in the test with SK-MEL-28 melanoma, with NCI-H23 lung, in the test with ACHN renal and in the test with MDA-MB-435 was greater than 100 µM throughout. The TGI in the test with SK-MEL-5 melanoma and in the test on SN12C renal was greater than 100 µM in each case.
Consider `O=C1OC2(c3ccccc31)c1cc(I)c(O)c(I)c1Oc1c2cc(I)c(O)c1I`, for which the TGI with HCT-116 colon, in the test with HT29 colon, in the test on SK-MEL-28 melanoma, in the test with NCI-H23 lung, in the test with ACHN renal and with MDA-MB-435 was greater than 100 µM each time. For the same molecule, the TGI in the test on SK-MEL-5 melanoma and with SN12C renal was greater than 100 µM throughout.
Take `CC1(C)CC2=NOS3=C2C(=NO3)C1c1ccccn1` (stereo not given): the TGI with HCT-116 colon is greater than 100 µM; in the test with HT29 colon, greater than 100 µM; in the test on SK-MEL-28 melanoma, greater than 100 µM; in the test on NCI-H23 lung, greater than 100 µM; in the test with ACHN renal it was greater than 100 µM; with MDA-MB-435, 39 µM. Further, the values for the TGI with SK-MEL-5 melanoma and with SN12C renal were 34.8 µM and greater than 100 µM, respectively.
As for `O=C(CCc1ccc(O)c(O)c1)c1ccc(O)c(O)c1O`, the TGI is greater than 100 µM with HCT-116 colon; 84 µM with HT29 colon; greater than 100 µM in the test with SK-MEL-28 melanoma; 61.3 µM with NCI-H23 lung; 28.4 µM with ACHN renal; 62.2 µM in the test on MDA-MB-435. The TGI in the test with SK-MEL-5 melanoma came to 36.3 µM; in the test on SN12C renal it was 31.9 µM.
`Cn1c(Cc2ccccc2)nc2cc3ccccc3cc21`: the GI50 with HCT-116 colon is 21 µM; with HT29 colon, 43.3 µM; in the test with SK-MEL-28 melanoma, 37.9 µM; with NCI-H23 lung, 43 µM; with ACHN renal, 31.7 µM; in the test with MDA-MB-435, 25.2 µM. In addition, the figures for the GI50 in the test on SK-MEL-5 melanoma and in the test on SN12C renal were 14.8 µM and 18.7 µM, respectively. Moreover, the TGI in the test with HCT-116 colon is 42.2 µM; in the test with HT29 colon, greater than 100 µM; in the test on SK-MEL-28 melanoma, greater than 100 µM; in the test with NCI-H23 lung, greater than 100 µM; in the test with ACHN renal it was greater than 100 µM; in the test with MDA-MB-435, 80 µM. Further, the TGI in the test with SK-MEL-5 melanoma was 29.1 µM; in the test with SN12C renal, 39.1 µM.
For `Nc1c(C(=O)Nc2cccc3ccccc23)sc2nc3c(cc12)CCCCC3`, the GI50 is 0.407 µM in the test on HCT-116 colon; 1.05 µM in the test with HT29 colon; 4.32 µM in the test on SK-MEL-28 melanoma; 1.78 µM in the test on NCI-H23 lung; 2.59 µM in the test on ACHN renal; 0.116 µM in the test on MDA-MB-435. Besides, the GI50 in the test on SK-MEL-5 melanoma was 0.347 µM; with SN12C renal it was 2.26 µM. Moreover, the TGI is greater than 50 µM in the test with HCT-116 colon; 4 µM in the test with HT29 colon; greater than 50 µM in the test on SK-MEL-28 melanoma; greater than 50 µM with NCI-H23 lung; greater than 50 µM in the test on ACHN renal; 0.32 µM with MDA-MB-435. The values for the TGI in the test with SK-MEL-5 melanoma and with SN12C renal were 11.5 µM and greater than 50 µM, respectively.
As to `Cc1c(N(C(=O)c2cc(-c3cc(Cl)ccc3C(=O)N3Cc4ccccc4C[C@H]3CN3CCOCC3)n(C)c2C)c2ccc(O)cc2)cc(C#N)n1C`, the GI50 with HCT-116 colon is 7.66 µM; with HT29 colon, 18.7 µM; in the test with SK-MEL-28 melanoma it was 31.3 µM; in the test on NCI-H23 lung, 35.6 µM; in the test with ACHN renal it was 23.6 µM; in the test on MDA-MB-435, 16.5 µM. The GI50 in the test on SK-MEL-5 melanoma was 14.6 µM; in the test on SN12C renal it was 19.5 µM. The TGI in the test on HCT-116 colon was greater than 100 µM; with HT29 colon, greater than 100 µM; with SK-MEL-28 melanoma it was greater than 100 µM; in the test with NCI-H23 lung, greater than 100 µM; in the test on ACHN renal, greater than 100 µM; in the test with MDA-MB-435 it was 40.7 µM. The TGI was 36.9 µM with SK-MEL-5 melanoma and greater than 100 µM in the test on SN12C renal.
In the case of `C=C1C(=O)O[C@H]2[C@H]1CC/C(COC(=O)NCCc1c[nH]c3ccccc13)=C\CC[C@@]1(C)O[C@@H]21`, the GI50 is 1.01 µM in the test on HCT-116 colon; 1.55 µM with HT29 colon; 1.38 µM in the test on SK-MEL-28 melanoma; 2.28 µM with NCI-H23 lung; 1.37 µM in the test with ACHN renal; 1.62 µM in the test with MDA-MB-435. Further, the GI50 in the test with SK-MEL-5 melanoma is 2.44 µM; with SN12C renal it was 1.2 µM. Further, the TGI in the test with HCT-116 colon was found to be 2.39 µM; in the test on HT29 colon, 3.78 µM; with SK-MEL-28 melanoma it was 3.11 µM; with NCI-H23 lung, 6.81 µM; in the test on ACHN renal it was 2.71 µM; with MDA-MB-435 it was 3.9 µM. For the same molecule, the TGI in the test with SK-MEL-5 melanoma was 5.95 µM; in the test with SN12C renal, 3.15 µM.
As for `O=C1CN2CCC1C/C2=C\c1ccnc2c(Cl)cccc12` (stereo not given), the GI50 in the test on HCT-116 colon was 45 µM; in the test on HT29 colon, 42.6 µM; in the test on SK-MEL-28 melanoma, greater than 100 µM; with NCI-H23 lung, 57 µM; with ACHN renal, 85.3 µM; in the test with MDA-MB-435 it was 75.6 µM. The values for the GI50 in the test on SK-MEL-5 melanoma and with SN12C renal were 31 µM and greater than 100 µM, respectively. Also, the TGI with HCT-116 colon, in the test on HT29 colon, in the test with SK-MEL-28 melanoma, in the test with NCI-H23 lung, in the test on ACHN renal and with MDA-MB-435 was greater than 100 µM each time. The TGI in the test on SK-MEL-5 melanoma and with SN12C renal was greater than 100 µM each time.
Consider `COc1cc(N)ccc1Nc1c2ccccc2nc2ccccc12`, for which the GI50 was 2.51 µM in the test with HCT-116 colon; 3.29 µM in the test with HT29 colon; 16.3 µM with SK-MEL-28 melanoma; 15 µM in the test with NCI-H23 lung; 3.36 µM with ACHN renal; 17 µM in the test on MDA-MB-435. The GI50 in the test with SK-MEL-5 melanoma was 7.52 µM; in the test on SN12C renal, 7.73 µM. The TGI in the test on HCT-116 colon turned out to be 7.63 µM; in the test with HT29 colon, 11 µM; with SK-MEL-28 melanoma, 34.9 µM; in the test with NCI-H23 lung, 45.2 µM; in the test on ACHN renal, 14.3 µM; in the test with MDA-MB-435 it was 33.2 µM. The TGI is 21.5 µM in the test with SK-MEL-5 melanoma and 24.9 µM with SN12C renal.
